Source: patent US7202278B2, “4-fluoro-N-indan-2-yl benzamide and its use as a pharmaceutical” (Sanofi-Aventis Deutschland GmbH, priority 2001, dated 2007)

Tests used:
eNOS promoter = assay: Activation of eNOS transcription (eNOS promoter-luciferase reporter); type: cell-based, human; settings: 18 h incubation
Procedure: Activation of eNOS transcription was measured as described in detail in Li et al. “Activation of protein kinase C alpha and/or epsilon enhances transcription of the human endothelial nitric oxide synthase gene”, Mol. Pharmacol. 1998, 53: 630–637.
Briefly, a 3.5 kB long fragment 5′ of the starting codon of the eNOS gene was cloned, sequenced and cloned in firefly luciferase expression plasmids to monitor activation of the eNOS promoter by reporter gene activity. A human endothelial cell line stable transfected and expressing this promoter-reporter construct was used for compound testing. Cells were incubated for 18 h with the compound (I).
Prior to incubation of the cells, the compound (I) was dissolved in sterile DMSO. A final concentration of 0.5% DMSO in complete medium was obtained. Induction of reporter gene expression in these cells was measured using a standard luciferase assay system (Promega, Cat. No E150) according to the manufacturer's instructions. Luciferase induction in cells incubated with compound (I) were compared to those incubated with solvent alone. The ratio of both activities (transcription induction ratio, TIR) was plotted as a function of compound concentration. […] EC50 values of transcription induction ratios as a function of compound concentration were determined graphically.

eNOS protein expression = assay: eNOS protein detection in HUVEC by quantitative Western blotting; type: cell-based, human; settings: 18 h incubation
Procedure: The effect of the compound (I) on eNOS-transcription was confirmed in a second assay based on eNOS protein detection. Primary human umbilical vein cord endothelial cells (HUVEC) were isolated and cultivated according to standard procedures. Confluent cells were incubated with compound (I) for 18 h and the effect on eNOS protein expression determined by a quantitative Western blotting procedure. After incubation of compound (I), HUVEC were lysed in ice-cold lysis buffer containing 10 mM Tris-HCl, pH 8.0, 1% SDS and protease inhibitors. The lysate was subjected to a standard denaturating polyacrylamid gel electropheresis and blotted to nitrocellulose membranes. Using a specific primary monoclonal antibody (Transduction Laboratories, UK) and alkaline phosphatase labelled secondary antibody (Jackson Labs), a specific eNOS protein band was visualized and quantified based on a chemifluorescence detection method.

ApoE deficient mice [1] = assay: Anti-hypertensive effect in ApoE knockout mice (tail-cuff); type: in vivo; settings: 30 mg/kg/d p.o. in chow, after 4 months treatment, placebo 115±2 mmHg, p<0.05
Text: (§1) ApoE and eNOS deficient mice (C57BL/6J background, Jackson Laboratory, Bar Harbor, Me.) were used. All animals were 10–12 weeks of age and weighed 22 to 28 g. Three days before surgery, mice were divided into 4 groups (apoE control, n=10–12; apoE with compound (I), n=10–12; eNOS control, n=10–12; eNOS with compound (I), n=10–12) and received either a standard rodent chow (containing 4% fat and 0.001% cholesterol; in the following designated as placebo group) or a standard rodent chow+compound (I) (10 or 30 mg/kg/d p.o.).
(§2) Blood-pressure was determined in conscious mice using a computerized tail-cuff system.

eNOS deficient mice [2] = assay: Blood pressure in eNOS deficient mice (tail-cuff); type: in vivo; settings: similar dosing, after 4 weeks treatment
Text: as §1, §2

ApoE deficient mice [3] = assay: Inhibition of neointima formation and atherogenesis (femoral artery cuff), ApoE deficient mice; type: in vivo
Text: as §1
After 3 days treatment of ApoE deficient mice with compound (I), (10 mg/kg/d pressed in chow), animals were anesthetized with an intraperitoneal injection of pentobarbital (60 mg/kg) followed by an intramuscular injection of xylazin (2 mg/kg) and a cuff was placed around the femoral artery as described in Moroi et at. (J Clin Invest. 101:1225–32, 1998). Briefly, the left femoral artery was dissected. A non-occlusive 2.0 mm polyethylene cuff made of PE-50 tubing (inner diameter 0.56 mm, outer diameter 0.965 mm, Becton Dickinson, Mountain View, Calif.) was placed around the artery and tied in place with two 7–0 sutures. The right femoral artery was isolated from the surrounding tissues but a cuff was not placed. Treatment with compound (I) was continued for 14 days after surgery. Then the animals were sacrificed. The aortas were taken for determination of vascular eNOS expressions by quantitative western blotting. Both femoral arteries were harvested, fixed in formalin and embedded in paraffin. 20 cross sections (10 μm) were cut from the cuffed portion of the left femoral artery and from the corresponding segment of the right artery. Sections were subjected to standard hematoxylin and eosin staining. Morphometric analyses were performed using an image analysis computer program (LeicaQWin, Leica Imaging Systems, Cambridge, GB). For each cross section the area of the lumen, the neointima and the media were determined. […] The ratio between the area of the neointima and the area of the media was expressed as the neointima/media ratio.

eNOS deficient mice [4] = assay: Femoral artery cuff model in eNOS deficient mice; type: in vivo; settings: similar setup
Text: as §1
After 3 days treatment of ApoE deficient mice with compound (I), (10 mg/kg/d pressed in chow), animals were anesthetized with an intraperitoneal injection of pentobarbital (60 mg/kg) followed by an intramuscular injection of xylazin (2 mg/kg) and a cuff was placed around the femoral artery as described in Moroi et at. (J Clin Invest. 101:1225–32, 1998). Briefly, the left femoral artery was dissected. […] The aortas were taken for determination of vascular eNOS expressions by quantitative western blotting. […] For each cross section the area of the lumen, the neointima and the media were determined. […] The ratio between the area of the neointima and the area of the media was expressed as the neointima/media ratio.

ApoE deficient mice [5] = assay: Prevention of atherosclerotic plaque formation in chronic treatment; type: in vivo
Text: as §1
ApoE deficient mice were treated for 16 weeks with compound (I) pressed in chow and finally sacrificed. Aortas were removed from each mouse, fixed in formalin and embedded in paraffin. Plaque formation was measured via lipid lesions formation in the aortas (from aortic arch to diaphragm) and was analyzed by oil red O staining. For quantifying the effect of the respective compound on vascular eNOS expression the […] were used in this experiment.

ApoE deficient mice [6] = assay: Improvement of coronary function in diseased ApoE deficient mice (isolated working heart); type: in vivo
Procedure: Old Male wild-type C57BL/6J mice (Charles River Wiga GmbH, Sulzfeld), and apolE deficient mice (C57BL/6J background, Jackson Laboratory, Bar Harbor, Me.) 6 month of age and weighing 28 to 36 g were used in the experiments. Mice were divided into 3 groups (C57BL/6, n=8; apoE control, n=8; apoE with compound (I), n=8) and received for 8 weeks either a standard rodent chow (containing 4% fat and 0.001% cholesterol) or a standard rodent chow+compound (I) (30 mg/kg/d p.o.).
Mice were anesthetized with sodium pentobarbitone (100 mg/kg i.p.), and the hearts were rapidly excised and placed into ice-cold perfusion buffer. The aorta was cannulated and connected to a perfusion apparatus (HUGO SACHS ELECTRONICS, Freiburg, Germany) which was started immediately at a constant perfusion pressure of 60 mm Hg. Hearts were perfused in a retrograde fashion with modified Krebs bicarbonate buffer, equilibrated with 95% O2 and 5% CO2 and maintained at 37.5° C.
A beveled small tube (PE 50) was passed through a pulmonary vein into the left ventricle and pulled through the ventricular wall, anchored in the apex by a fluted end, and connected to a tip-micromanometer (Millar 1.4 French). The left atrium was cannulated through the same pulmonary vein and the heart switched to the working mode with a constant preload pressure of 10 mm Hg and an afterload pressure of 60 mm Hg. Aortic outflow and atrial inflow were continuously measured using ultrasonic flow probes (HSE/Transonic Systems Inc.). Coronary flow was calculated as the difference between atrial flow and aortic flow. All hemodynamic data were digitized at a sampling rate of 1000·Hz and recorded with a PC using specialized software (HEM, Notocord).
Hearts were allowed to stabilize for 30 min. All functional hemodynamic data were measured during steady state, and during volume- and pressure loading.
Left ventricular function curves were constructed by varying pre-load pressure. For acquisition of preload curves, afterload was set at 60 mm Hg and preload was adjusted in 5 mm Hg steps over a range of 5 to 25 mm Hg. […]

[7] = isolated hearts of ApoE deficient mice, 30 mg/kg/d p.o., 8 weeks

## O=C(NC1Cc2ccccc2C1)c1ccc(F)cc1 [compound (I), 4-fluoro-N-indan-2-yl benzamide]
eNOS promoter; human endothelial cell line stably transfected with eNOS promoter-luciferase construct, read-out: EC50 of transcription induction ratio
  EC50: 800 nM
eNOS promoter; human endothelial cell line, ratio versus solvent alone
  TIR(max) (maximum transcription induction ratio): 4.10
eNOS protein expression
  effect on eNOS protein expression: confirmed
ApoE deficient mice [1]
  blood pressure: 92±5 mmHg
eNOS deficient mice [2]
  blood pressure reduction: No blood pressure reduction could be observed
ApoE deficient mice [3]; 10 mg/kg/d in chow, 3 days before to 14 days after cuff surgery
  reduction of neo-intima formation (factor): 2
ApoE deficient mice [3]; 10 mg/kg/d in chow, cuffed femoral artery, placebo 0.39±0.07
  neointima to media ratio: 0.170±0.04
ApoE deficient mice [3]; 10 mg/kg/d, aortas, quantitative western blotting
  vascular eNOS expression enhanced by a factor: 2.1
eNOS deficient mice [4]
  effect on neointima formation / eNOS expression: No effect
ApoE deficient mice [5]; 16 weeks treatment in chow, aortas, oil red O staining, placebo 13.3±2.6
  overall plaque size in % of total surface: 5.2±1%
ApoE deficient mice [5]; 16 weeks treatment, femoral arteries
  vascular eNOS expression up-regulation: 1.75 fold
ApoE deficient mice [6]; isolated hearts of ApoE deficient mice treated 8 weeks with 30 mg/kg/d p.o., wildtype 4.95 ml/min
  coronary flow: 5 mL/min
ApoE deficient mice [6]; [7]
  incidence of ventricular arrhythmias: reduced
  pre-load dependent coronary flow: improved
